No end group written: not given here.
Tests used:
[1] = tested on: Human dermal fibroblasts (hDFs); experiment: WST-8 assay, cytotoxicity in dermal fibroblasts; assay type: cell-based; conditions: 48 hours treatment; tested at 10, 100 µM, 1, 5, 10 mM; WST-8, 450nm absorbance
Description: Human dermal fibroblasts (hDFs) were dispensed at 0.3×10^5/well in 96-well plates (using Fibroblast Growth Medium (Lonza, CC-4126) containing 2% FBS, 0.1% Insulin, 0.1% FGF, 0.1% Gentamycin sulfate-Amphotericin) and cultured for 24 hours in an incubator at 37°C, 5% CO2 conditions.
WST-8 analysis was performed to confirm cytotoxicity of the peptide (SEQ ID NO: 96) in dermal fibroblasts. The peptide was treated on dermal fibroblasts at concentrations of 10, 100 µM, 1, 5, 10 mM respectively. After treating for 48 hours at each concentration, WST-8 solution was dispensed into the culture medium at a 10:1 ratio, light-shielded, reacted for 2 hours under 37°C incubator conditions, and then measured at 450nm absorbance with a microplate.
The peptide (SEQ ID NO: 96) of the present invention was treated on dermal fibroblasts at concentrations of 10, 100 µM, 1, 5, 10 mM respectively. After 48 hours, cell viability was quantified through WST-8 analysis.

[2] = tested on: human-derived three-dimensional skin tissue; experiment: Skin penetration of fluorescence-conjugated peptide in human-derived three-dimensional skin tissue (confocal microscopy); assay type: in vitro ADME; conditions: 1 mM fluorescence-conjugated peptide
Description: To confirm the possibility of skin penetration of the peptides of the present invention, three-dimensional skin tissue composed of epidermis and dermis was created using human-derived keratinocytes and dermal fibroblasts, and then fluorescence-conjugated peptide (SEQ ID NO: 96) of the present invention at 1 mM was treated. After treatment, the position of fluorescence was continuously observed through confocal microscopy at 1, 6, 12, and 24 hours.
FITC fluorescence was attached to the lysine residue of the peptide (SEQ ID NO: 96) of the present invention to create Peptide-FITC using the peptide (SEQ ID NO: 96) of the present invention. Peptide-FITC at 1 mM was treated on human-derived three-dimensional skin tissue (TegoScience, Neoderm-ED) and the skin penetration state of Peptide-FITC was confirmed through confocal microscopy at 1 hour, 6 hours, 12 hours, and 24 hours.

position of fluorescence (skin penetration) ([2]; after 1 hour): observed in the stratum corneum
position of fluorescence (skin penetration) ([2]; after 6 hours): observed in the epidermal layer
position of fluorescence (skin penetration) ([2]; after 24 hours): existed in the dermal layer
position of fluorescence (skin penetration) ([2]; from 12 hours onward): began to be observed in the dermal layer
Sequence: KYKQKRRSYK [SEQ ID NO: 96, KYKQKRRSYK]
no cytotoxicity to dermal fibroblasts up to a concentration of [1]: ≤ 5 mM
significant cytotoxicity at a concentration of [1]: 10 mM

From EP4699613A1, “NOVEL USE OF CPNE7 PROTEIN-DERIVED PEPTIDE” (Hysensbio Co., Ltd, priority 2023, dated 2024)
